# Measurements: patent publication US8785472B2, “Use of dextromethorphan in treating addictive behavior or bipolar disorder” (National Cheng Kung University, priority 2010, dated 2014)
# Entries after “also recorded” stand apart in the source; their conditions may differ.
# Experiments:
# [1] = tested on: rat primary mixed mesencephalic neuron-glia cultures; settings: cited from earlier work
# [2] = tested on: subjects with opioid dependence; assay: Double-blind DM add-on to methadone maintenance therapy, 12 weeks: methadone dose and urine opioid
# [3] = tested on: methadone-maintained male inpatients; settings: DM at high doses (120, 240, 480 mg/day in increasing order); cited from earlier work
# LPS and MPTP PD models = settings: cited from earlier work
# [4] = tested on: subjects with bipolar I or II disorder; assay: Double-blind DM add-on to valproate, 12 weeks: YMRS, HDRS, CGI; type: in vivo, human; settings: for YMRS score: DM 60 mg/day add-on to VPA
# From the text: Totally 292 male and female subjects with bipolar I or II disorder, from the Department of Psychiatry at National Cheng Kung University Hospital and National Defense Medical Center were recruited. […] The Institutional Review Board for the Protection of Human Subjects approved the study protocol by both medical centers.
# The add-on double-blind study treatment with DM/place was commenced at randomization for 12 weeks while patients continue open-label VPA. Subjects were randomized to either with 60 mg per day of DM or placebo at Baseline and proceeded to double-blind Add-On Treatment. The treatment response and side effect were measured to clarify the curative effect of DM add-on therapy to VPA in the treatment of bipolar disorders. […] Concomitant benzodiazepine medication (preferably up to 8 mg lorazepam) was used for daytime sedation, agitation or insomnia during the study. Risperidone 1-6 mg/daily and fluoxetine 20 mg/daily were permitted during manic or depressive stage, and anticholinergic drug was also used for the extrapyramidal syndrome (EPS).
# The Chinese version of the modified SADS-L, a semi-structured interview aimed at formulating the main diagnoses based upon DSM-IV criteria with good inter-rater reliability. This modified version of SADS-L with its diagnoses was used as the gold standard. The severity of current symptoms was assessed by using the YMRS and HDRS. The diagnoses of a mood disorder were made according to DSM-IV criteria, except for bipolar II disorder, where the duration criterion for hypomania of 4 days was left out but 2-day cutoff for hypomania was used instead, because the 4 days minimum duration might not be based on data and the newly adopted cutoff had been supported by several previous reports. The side effect was measured using Clinical Global Impression (CGI) at each visit point.
# (§1) All of the above, vital sign, and immunological markers were measured at baseline, 1, 2, 4, 8 and 12 weeks. For the 30 subjects of health control were also recruited for comparing the immune markers. The degree of benefit on symptoms after the week 4, 8 and end of treatment due to add-on DM treatment to VPA in comparison with placebo using a main measure of total psychopathology. The safety and tolerability and measure and assess the changes of immunology, and clinical features between the group with add-on DM treatment with placebo from Baseline to the end of study were compared.
# For each scale, data were analyzed using last observation carried forward (LOCF) method, in which the last observation was entered for missing visits. To assess the efficacy in various clinical domains and take into account patient effects, mixed-effects models (Lange & Ryan 1989) were used (with intercept as the random effects) for all normally distributed outcomes, with main effects for treatment (DM or placebo), time (0, 1, 2, 4, 8, 12 weeks), and the treatment×time interaction. The analysis of the response rate was intent to treat. All hypothesis tests were 2-sided and were conducted at α=0.05. The post hoc of independent t test was then used to examine which time point the effect of add-on treatment started. P<0.05 was considered statistically significant for all two-sided tests. Statistical analyses were carried out using SPSS for windows (version 15.0).
# [5] = tested on: plasma TNF-alpha, CRP, IL-1beta, IL-6, IL-8, BDNF; assay: Plasma immunological markers (ELISA) in the DM add-on methadone trial; type: in vivo, human; settings: for plasma TNF-alpha concentration: FIG. 3
# Protocol: • Human Cytokine Array I (Ray Biotech Inc., Norcross, Ga.) consisted of 23 different cytokine and chemokine antibodies spotted in duplicate onto a membrane (Dvorakova et al. 2004). The membranes were blocked with 10% bovine serum albumin in Tris-buffered saline according to the instructions of the manufacturer. One and a half milliliters of conditioned medium was added to each membrane in separate wells of a six-well plate. The membranes were shaken at 110 rpm at room temperature for an hour and a half. All washes were done in new six-well plates, according to the instructions of the manufacturer. Two milliliters of a 1:500 dilution of biotinconjugated antibodies was added to each membrane, and the mixture was incubated on a shaker for an hour and a half at room temperature. Following the wash, the membranes were incubated with a 1:40,000 dilution of strepavidin-conjugated peroxidase for 1 hour at room temperature, according to the instructions of the manufacturer. Following a thorough wash, the membranes were exposed to a peroxidase substrate (ChemGlow West; Alphalnnotech Corp., San Leandro, Calif.) for 5 min in the dark before imaging. Two or six individual membranes were placed side-by-side in a plastic protective folder and sealed. Imaging was done with a UVP AutoChemi imaging system within 30 min of exposure to the substrate. Exposure times ranged from 1 to 10 min. Chemiluminescence was quantified with LabWorks imaging and analysis software. Horseradish peroxidase (HRP)-conjugated antibody served as a positive substrate control at six spots and was also used to identify membrane orientation. For each spot the net density gray level was determined by subtracting the background gray levels from the total raw density gray levels. The relative fold difference in cytokine amount was determined in reference to the amount present on the control culture membrane based on the following: average treated culture cytokine spot gray levels/average control culture cytokine spot gray levels. 2. ELISA • Cytokine was quantified by using the Flexia antibody pair system (Bio-Source Intl., Camarillo, Calif.). Basically, the enzyme-linked immunosorbent assays (ELISAs) were optimized by using 96-well plates (MaxiSorp; Nalge Nunc International Corp., Naperville, Ill.) coated with 100 μl of strepavidin (Sigma, St. Louis, Mo.) at 5 μg/ml in water overnight at 37° C. or until all water was evaporated. All plates were stored desiccated at 4° C. until use. Biotinylated F(ab)2 coating antibody (5 μg/ml) was added to each well, and the plate was incubated at 37° C. for 2 hours. All wells were blocked and washed according to the instructions of the manufacturer. Standards or samples (100 μl) were added to the wells, and the plates were incubated at 37° C. for 1 hour. HRP-conjugated antibody (10 μg/ml) was added for an additional hour at 37° C. The plates were then washed thoroughly according to the instructions of the manufacturer. One hundred microliters of tetramethlybenzidine substrate (Roche, Indianapolis, Ind.) was added to each well, and the plates were held for 30 min in the dark. The reaction was stopped by the addition of 100 μl of 2 NH2SO4 to each well. The absorbance was read on an automated plate reader (Tecan U.S. Inc.) at 450 nm (reference wavelength, 650 nm). Values (in picograms per milliliter) were calculated from a standard curve. Samples were diluted up to 1:20, depending on the concentration.
# The immunological parameters, C-reactive protein, TNF-α and interleukins was measured in the blood samples taken at Screen, week 1, week 4, week 8 and at the end of the study.
# [6] = tested on: plasma TNF-α, IL-1β, IL-8, CRP, BDNF; assay: Plasma cytokine level (ELISA) in the DM add-on valproate trial; type: in vivo, human
# Protocol: Blood routine, SGOT, SGPT, BUN and creatinine were measured only while the samples were taken at screen and at the end of the study. Plasma cytokine was quantified using the enzyme-linked immunosorbent assays (ELISAs). The Quantikine Human cytokine kit (R&D system), and Molecular Devices (SpectraMax-M2) ELISA reader were used to analyze the plasma cytokine level. The immunological parameters, BDNF, TNF-α, and interleukins were measured in the blood samples. The low limit sensitivity was 0.5 pg/ml, 0.125 pg/ml and 62.5 pg/ml for TNF-α, IL-1β and BDNF respectively. Finally, we used HPLC with UV detector to measure the plasma DM level.
# as §1
# [7] = BP subjects, after 12 weeks depakine add-on dextromethorphan vs pretest, FIG. 11
# [8] = normal controls vs BP subjects, before and after treatment (data not shown)
structure (smiles),measurement,setting,value
"COc1ccc2c(c1)[C@]13CCCC[C@@H]1[C@H](C2)N(C)CC3 [DM, Dextromethorphan]",neuroprotection with post-treatment,[1]; DM added up to 60 minutes after the addition of LPS,Significant neuroprotection
same,number of dopamine neurons and dendrite morphology,[1]; pretreated with DM (10 μM) before LPS stimulation,significantly more numerous and the dendrites less affected
same,concentration protecting dopamine neurons against LPS-induced reduction of dopamine uptake,[1]; rat primary mixed mesencephalic neuron-glia cultures,1 to 10 µM
same,percentage morphine-positive urine,"[2]; both high (>30 ng/ml) and low (<=30 ng/ml) plasma DM level groups vs placebo, FIG. 2",lower percentage morphine-positive urine
same,methadone dosage change,"[2]; low plasma DM level group (<=30 ng/ml) vs high plasma DM group and placebo, 12 weeks add-on to methadone, FIG. 1",highest tendency of decrease of methadone use
same,"effects on heart rate, blood pressure, temperature and plasma bromide",[3],mild elevations
same,protective effect in animal PD models,LPS and MPTP PD models,potent protective effect
same,"HDRS score, DM vs placebo",[4]; BP I,no differences
same,"YMRS score, DM vs placebo",[4]; BP I,no differences
same,YMRS score,"[4]; BP I, Baseline",8.08 ± 5.35
same,YMRS score,"[4]; BP I, Week 1",8.08 ± 5.35
same,YMRS score,"[4]; BP I, Week 2",7.31 ± 5.00
same,YMRS score,"[4]; BP I, Week 4",5.86 ± 3.01
same,YMRS score,"[4]; BP I, Week 8",6.16 ± 3.61
same,YMRS score,"[4]; BP I, Week 12",5.80 ± 4.04
same,"CGI-therapeutic effect score, DM vs placebo","[4]; BP I, p=0.07, FIG. 10",borderline significance; also recorded: Borderline improvement
same,effectiveness in hypomania stage,"[4]; BP II patients, dextromethorphan add-on depakine, after 8 weeks of treatment",more effective
same,YMRS score,"[4]; BP II, Baseline",5.77 ± 3.25
same,YMRS score,"[4]; BP II, Week 1",5.60 ± 2.99
same,YMRS score,"[4]; BP II, Week 2",5.88 ± 3.13
same,YMRS score,"[4]; BP II, Week 4",5.60 ± 2.90
same,YMRS score,"[4]; BP II, Week 8 (p = 0.01 vs placebo)",4.40 ± 2.26
same,YMRS score,"[4]; BP II, Week 12 (p = 0.008 vs placebo)",4.26 ± 1.97
same,"YMRS score, DM vs placebo over time","[4]; BP II, F=5.68, p=0.02, FIG. 9",significant difference of YMRS score
same,plasma IL-6 concentration,"[5]; between groups throughout 12-week treatment, FIG. 6",no significant differences
same,plasma IL-8 concentration,"[5]; between groups throughout 12-week treatment, FIG. 7",no significant differences
same,plasma BDNF concentration,"[5]; between groups throughout 12-week treatment, FIG. 8",no significant differences
same,plasma TNF-alpha concentration,[5]; both high and low plasma DM groups vs placebo,Significantly lower plasma TNF-alpha concentration
same,plasma IL-1beta concentration,"[5]; both high and low plasma DM level groups vs placebo, FIG. 5",lower plasma IL-1beta concentration
same,plasma TNF-alpha concentration,[5]; low plasma DM group compared with high plasma DM group,tendency of more decrease of plasma TNF-alpha concentration
same,plasma CRP concentration,"[5]; only in low plasma DM group, FIG. 4",lower plasma CRP concentration
same,plasma IL-1β,"[6]; BP patients, after the add-on DM treatment",decrease
same,plasma IL-8 level,[6]; [7],significant decreasing
same,plasma TNF-α level,[6]; [7],significant decreasing
same,plasma BDNF,[6]; [8],no difference
same,plasma CRP,[6]; [8],no difference
